Patent publication US9656990B2, “Cathepsin cysteine protease inhibitors” (Merck Sharp & Dohme Corp., priority 2014, dated 2017)

Key:
human cathepsin K = human cathepsin K (UniProt P43236, Y175D/V274L, species not given); assay: Cathepsin K Assay; type: biochemical; conditions: IP from dose response curve; Z-Leu-Arg-AMC substrate, pH 5.5; read-out: hrbCat K (IP (nM))
human cathepsin F = target: T1, human cathepsin F (Homo sapiens, UniProt Q9UBX1); assay: Cathepsin F Assay; type: biochemical; conditions: IP from dose response curve; Z-Phe-Arg-AMC substrate, pH 5.5; read-out: hCat F (IP (nM))
T1 sequence (Q9UBX1 271-484): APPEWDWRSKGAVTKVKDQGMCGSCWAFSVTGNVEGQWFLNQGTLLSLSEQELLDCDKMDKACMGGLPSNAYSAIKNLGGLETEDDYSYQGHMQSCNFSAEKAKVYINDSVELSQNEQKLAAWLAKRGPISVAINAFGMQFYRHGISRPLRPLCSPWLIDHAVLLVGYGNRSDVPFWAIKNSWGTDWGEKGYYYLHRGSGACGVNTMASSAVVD
How it was run: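 Human cathepsin F (10 nM) preincubated 15 min at room temperature with compounds in 50 mM MES pH 5.5, 2.5 mM EDTA, 2.5 mM DTT, 10% DMSO. Z-Phe-Arg-AMC (8 μM) added; AMC release read by fluorescence (Ex 360/Em 460 nm) over 20 min, inhibition fit to dose-response model.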

## CN=S1(=O)CCN(c2ccc(-c3c([C@@H]4CCCC[C@H]4C(=O)N[C@@H](C)C#N)nn(-c4ncccc4F)c3C)cc2)CC1 [Example 47, (1R,2R)-N-((S)-1-cyanoethyl)-2-(1-(3-fluoropyridin-2-yl)-5-methyl-4-(4-(1-(methylimino)-1-oxidothiomorpholino)phenyl)-1H-pyrazol-3-yl)cyclohexanecarboxamide]
Human cathepsin K
  IC50: 5.48 nM
Human cathepsin F
  IC50: 3240 nM

## Cc1ccc(-n2cc(-c3ccc(N4CCS(=O)(=O)CC4)cc3)c([C@@H]3CCCC[C@H]3C(=O)NC3(C#N)CC3)n2)nn1 [Example 7, (1R,2R)—N-(1-Cyanocyclopropyl)-2-(4-(4-(1,1-dioxidothiomorpholino)phenyl)-1-(6-methylpyridazin-3-yl)-1H-pyrazol-3-yl)cyclohexanecarboxamide]
Human cathepsin K
  IC50: 1.54 nM
Human cathepsin F
  IC50: 517 nM

## COc1cccc(-n2cc(-c3ccc(N4CCS(=O)(=O)CC4)cc3)c([C@@H]3CCCC[C@H]3C(=O)NC3(C#N)CC3)n2)c1 [Example 2, (1R,2R)—N-(1-Cyanocyclopropyl)-2-(4-(4-(1,1-dioxidothiomorpholino)phenyl)-1-(3-methoxyphenyl)-1H-pyrazol-3-yl)cyclohexanecarboxamide]
Human cathepsin K
  IC50: 0.99 nM
Human cathepsin F
  IC50: 494 nM

## N#CC1(NC(=O)[C@H]2CC(F)(F)CC[C@@H]2c2nn(-c3ccc(F)cc3)cc2-c2ccc(N3CCS(=O)(=O)CC3)cc2)CC1 [Example 84, (1S,2S)-N-(1-cyanocyclopropyl)-2-(4-(4-(1,1-dioxidothiomorpholino)phen-yl)-1-(4-fluorophenyl)-1H-pyrazol-3-yl)-5,5-difluorocyclohexanecarbox-amide]
Human cathepsin K
  IC50: 51.6 nM
Human cathepsin F
  IC50: 1050 nM

## CC(=O)N1CC(c2ccc(-c3cn(-c4ccc(F)cc4)nc3[C@@H]3CCCC[C@H]3C(=O)NC3(C#N)CC3)cc2)C1 [Example 134, (1R,2R)-2-(4-(4-(1-acetylazetidin-3-yl)phenyl)-1-(4-fluorophenyl)-1H-pyrazol-3-yl)-N-(1-cyanocyclopropyl)cyclohex-anecarboxamide]
Human cathepsin K
  IC50: 1.57 nM
Human cathepsin F
  IC50: 210 nM

## N#CC1(NC(=O)[C@@H]2CC(F)(F)CC[C@H]2c2nn(-c3ccc(F)cc3)c(CO)c2-c2ccc(N3CCS(=O)(=O)CC3)cc2)CC1 [Example 11, (1R,2R)—N-(1-Cyanocyclopropyl)-2-(4-(4-(1,1-dioxidothiomorpholino)phenyl)-1-(4-fluorophenyl)-5-(hydroxymethyl)-1H-pyrazol-3-yl)-5,5-difluorocyclohexanecarboxamide]
Human cathepsin K
  IC50: 1.41 nM
Human cathepsin F
  IC50: 125 nM

## N#CC1(NC(=O)[C@@H]2C[C@@H](F)CC[C@H]2c2nn(-c3ccc(F)cc3)cc2-c2ccc(N3CCS(=N)(=O)CC3)cc2)CC1 [Example 16, (1R,2R,5S)-N-(1-cyanocyclopropyl)-5-fluoro-2-(1-(4-fluorophenyl)-4-(4-(1-imino-1-oxidothiomorpholino)phenyl)-1H-pyrazol-3-yl)cyclohexanecarboxamide]
Human cathepsin K
  IC50: 2.83 nM
Human cathepsin F
  IC50: 2600 nM

## CN=S1(=O)CCN(c2ccc(-c3cn(-c4ccc(F)cn4)nc3[C@@H]3CC(F)(F)CC[C@H]3C(=O)NC3(C#N)CC3)cc2)CC1 [Example 9, (1R,2R)—N-(1-Cyanocyclopropyl)-4,4-difluoro-2-(1-(5-fluoropyridin-2-yl)-4-(4-(1-(methylimino)-1-oxidothiomorpholino)phenyl)-1H-pyrazol-3-yl)cyclohexanecarboxamide]
Human cathepsin K
  IC50: 2.56 nM
Human cathepsin F
  IC50: 3670 nM

## N#CC1(NC(=O)[C@@H]2CCCC[C@H]2c2nn(-c3cc(F)ccc3F)cc2-c2ccc(N3CCS(=O)(=O)CC3)cc2)CC1 [Example 114, (1R,2R)-N-(1-cyanocyclopropyl)-2-(1-(2,5-difluorophenyl)-4-(4-(1,1-dioxidothiomorpholino)phen-yl)-1H-pyrazol-3-yl)cyclohexanecarboxamide]
Human cathepsin K
  IC50: 1.06 nM
Human cathepsin F
  IC50: 633 nM

## Cc1c(-c2ccc(N3CCS(=O)(=O)CC3)cc2)c([C@@H]2CCCC[C@H]2C(=O)N[C@@H](C)C#N)nn1-c1ncccc1F [Example 42, (1R,2R)-N-((S)-1-cyanoethyl)-2-(4-(4-(1,1-dioxidothiomorpholino)phen-yl)-1-(3-fluoropyridin-2-yl)-5-methyl-1H-pyrazol-3-yl)cyclohexanecarboxamide]
Human cathepsin K
  IC50: 3.62 nM
Human cathepsin F
  IC50: 1990 nM

## N#CC1(NC(=O)[C@@H]2CC(F)(F)CC[C@H]2c2nn(-c3ccc(F)cn3)c(CO)c2-c2ccc(N3CCS(=O)(=O)CC3)cc2)CC1 [Example 70, (1R,2R)-N-(1-cyanocyclopropyl)-2-(4-(4-(1,1-dioxidothiomorpholino)phen-yl)-1-(5-fluoropyridin-2-yl)-5-(hydroxymethyl)-1H-pyrazol-3-yl)-5,5-difluorocyclohexanecarbox-amide]
Human cathepsin K
  IC50: 1.9 nM
Human cathepsin F
  IC50: 185 nM

## COc1ccc(-n2cc(-c3ccc(N4CCS(=O)(=O)CC4)cc3)c([C@@H]3CCCC[C@H]3C(=O)NC3(C#N)CC3)n2)cn1 [Example 168, (1R,2R)-N-(1-cyanocyclopropyl)-2-(4-(4-(1,1-dioxidothiomorpholino)phen-yl)-1-(6-methoxypyridin-3-yl)-1H-pyrazol-3-yl)cyclohexanecarboxamide]
Human cathepsin K
  IC50: 2.4 nM
Human cathepsin F
  IC50: 763 nM

## CC(C)OC(=O)N1CC(c2ccc(-c3cn(-c4ccc(F)cc4)nc3[C@@H]3CCCC[C@H]3C(=O)NC3(C#N)CC3)cc2)C1 [Example 6, Isopropyl 3-(4-(3-((1R,2R)-2-((1-cyanocyclopropyl)carbamoyl)cyclohexyl)-1-(4-fluorophenyl)-1H-pyrazol-4-yl)phenyl)azetidine-1-carboxylate]
Human cathepsin K
  IC50: 0.53 nM
Human cathepsin F
  IC50: 49 nM

## N#CC1(NC(=O)C2CC(F)(F)CCC2c2nn(-c3ccc(F)cc3)cc2-c2ccc(N3CCS(=O)(=O)CC3)cc2)CC1 (racemic) [Example 80, (1R,2R and 1S,2S)-N-(1-cyanocyclopropyl)-2-(4-(4-(1,1-dioxidothiomorpholino)phen-yl)-1-(4-fluorophenyl)-1H-pyrazol-3-yl)-5,5-difluorocyclohexanecarbox-amide]
Human cathepsin K
  IC50: 1 nM
Human cathepsin F
  IC50: 35 nM

## N#CC1(NC(=O)[C@@H]2CCCC[C@H]2c2nn(-c3cccnn3)cc2-c2ccc(N3CCS(=O)(=O)CC3)cc2)CC1 [Example 161, (1R,2R)-N-(1-cyanocyclopropyl)-2-(4-(4-(1,1-dioxidothiomorpholino)phen-yl)-1-(pyridazin-3-yl)-1H-pyrazol-3-yl)cyclohexanecarboxamide]
Human cathepsin K
  IC50: 1.61 nM
Human cathepsin F
  IC50: 751 nM

## CC(C)[C@@H](C#N)NC(=O)[C@@H]1CCC(F)(F)C[C@H]1c1nn(-c2ncccc2F)cc1-c1ccc(N2CCS(=O)(=O)CC2)cc1 [Example 32, (1R,2R)-N-((S)-1-cyano-2-methylpropyl)-2-(4-(4-(1,1-dioxidothiomorpholino)phen-yl)-1-(3-fluoropyridin-2-yl)-1H-pyrazol-3-yl)-4,4-difluorocyclohexanecarbox-amide]
Human cathepsin K
  IC50: 7.11 nM
Human cathepsin F
  IC50: 2780 nM

## Cc1c(-c2ccc(N3CCS(=O)(=O)CC3)cc2)c([C@@H]2CCCC[C@H]2C(=O)N[C@@H](C)C#N)nn1-c1ccc(F)cn1 [Example 66, (1R,2R)-N-((S)-1-cyanoethyl)-2-(4-(4-(1,1-dioxidothiomorpholino)phen-yl)-1-(5-fluoropyridin-2-yl)-5-methyl-1H-pyrazol-3-yl)cyclohexanecarboxamide]
Human cathepsin K
  IC50: 3.6 nM
Human cathepsin F
  IC50: 653 nM

## N#CC1(NC(=O)[C@@H]2CCCC[C@H]2c2nn(-c3ccc4[nH]ccc4c3)cc2-c2ccc(N3CCS(=O)(=O)CC3)cc2)CC1 [Example 137, (1R,2R)-N-(1-cyanocyclopropyl)-2-(4-(4-(1,1-dioxidothiomorpholino)phen-yl)-1-(1H-indol-5-yl)-1H-pyrazol-3-yl)cyclohexanecarboxamide]
Human cathepsin K
  IC50: 8.43 nM
Human cathepsin F
  IC50: 2830 nM

## N#CC1(NC(=O)[C@@H]2CC(F)(F)CC[C@H]2c2nn(-c3ccc(F)cn3)c(CO)c2-c2ccc(N3CCS(=O)(=O)CC3)cc2)CC1 [Example 68, (1R,2R)-N-(1-cyanocyclopropyl)-2-(4-(4-(1,1-dioxidothiomorpholino)phen-yl)-1-(5-fluoropyridin-2-yl)-5-(hydroxymethyl)-1H-pyrazol-3-yl)-5,5-difluorocyclohexanecarbox-amide]
Human cathepsin K
  IC50: 1.41 nM
Human cathepsin F
  IC50: 125 nM

## N#CCNC(=O)C1CC(F)(F)CCC1c1nn(-c2ccc(F)cc2)cc1-c1ccc(N2CCS(=O)(=O)CC2)cc1 (racemic) [Example 79, (1R,2R and 1S,2S)-N-(cyanomethyl)-2-(4-(4-(1,1-dioxidothiomorpholino)phen-yl)-1-(4-fluorophenyl)-1H-pyrazol-3-yl)-5,5-difluorocyclohexanecarbox-amide]
Human cathepsin K
  IC50: 0.81 nM
Human cathepsin F
  IC50: 17 nM

## Cc1c(-c2ccc(N3CCS(=O)(=O)CC3)cc2)c([C@@H]2CCCC[C@H]2C(=O)NC2(C#N)CC2)nn1-c1ccc(F)cn1 [Example 157, (1R,2R)-N-(1-cyanocyclopropyl)-2-(4-(4-(1,1-dioxidothiomorpholino)phen-yl)-1-(5-fluoropyridin-2-yl)-5-methyl-1H-pyrazol-3-yl)cyclohexanecarboxamide]
Human cathepsin K
  IC50: 4.26 nM
Human cathepsin F
  IC50: 2980 nM

## N#CC1(NC(=O)[C@@H]2CCCC[C@H]2c2nn(-c3ccc(F)cn3)cc2-c2ccc(N3CCS(=O)(=O)CC3)cc2)CC1 [Example 145, (1R,2R)-N-(1-cyanocyclopropyl)-2-(4-(4-(1,1-dioxidothiomorpholino)phen-yl)-1-(5-fluoropyridin-2-yl)-1H-pyrazol-3-yl)cyclohexanecarboxamide]
Human cathepsin K
  IC50: 1.24 nM
Human cathepsin F
  IC50: 481 nM
